Experiment: xn = mol fraction of the nth substance listed

O=S(=O)([N-]S(=O)(=O)C(F)(F)F)C(F)(F)F.[Li+] + C1COCO1
298.15 K, 100 kPa
Settings | electrical conductivity [S/m] | viscosity [mPa·s]
x1 = 8e-07 | 1.3e-05 | –
x1 = 3.74e-06 | 3.1e-05 | –
x1 = 8.82e-06 | 5e-05 | 0.58
x1 = 1.615e-05 | 6.8e-05 | 0.582
x1 = 2.378e-05 | 8.1e-05 | 0.583
x1 = 3.941e-05 | 0.000103 | 0.584
x1 = 8.444e-05 | 0.000138 | 0.585
x1 = 0.0001607 | 0.0002 | 0.588
x1 = 0.0004162 | 0.000398 | 0.589
x1 = 0.0007624 | 0.000536 | 0.591
x1 = 0.001538 | 0.000978 | 0.595
x1 = 0.002969 | 0.00173 | 0.608
x1 = 0.004513 | 0.00309 | 0.629
x1 = 0.005877 | 0.00459 | 0.633
x1 = 0.007354 | 0.00664 | 0.637
x1 = 0.01099 | 0.0164 | 0.661
x1 = 0.0146 | 0.0294 | 0.683
x1 = 0.02174 | 0.0659 | 0.758
x1 = 0.03572 | 0.169 | 0.905
x1 = 0.06897 | 0.446 | 1.388
x1 = 0.08475 | 0.563 | 1.684
x1 = 0.1 | 0.643 | 2.11
x1 = 0.1285 | 0.738 | 3.122
x1 = 0.1563 | 0.744 | 4.4
x1 = 0.1818 | 0.69 | 6.52
x1 = 0.2054 | 0.606 | 9.99
x1 = 0.2273 | 0.512 | 13.96
x1 = 0.2467 | 0.431 | 20.04
x1 = 0.2703 | 0.337 | 30.3

CCCCn1cc[n+](C)c1C.O=S(=O)([N-]S(=O)(=O)C(F)(F)F)C(F)(F)F + CC1COC(=O)O1
101.3 kPa
Settings | viscosity [mPa·s]
288.15 K, x1 = 0.6989 | 76.5
293.15 K, x1 = 0.0902 | 4.602
293.15 K, x1 = 0.6034 | 43.21
298.15 K, x1 = 0.4039 | 16.99
303.15 K, x1 = 0.193 | 5.92
303.15 K, x1 = 0.4996 | 20.52
303.15 K, x1 = 0.8107 | 50
303.15 K, x1 = 1 | 78.6
308.15 K, x1 = 0.193 | 5.23
308.15 K, x1 = 0.8107 | 40.47
313.15 K, x1 = 0.0902 | 2.96
313.15 K, x1 = 0.4039 | 10.52
313.15 K, x1 = 1 | 50.1
318.15 K, x1 = 0.193 | 4.177
318.15 K, x1 = 0.2934 | 6.16
318.15 K, x1 = 0.4996 | 13.02
318.15 K, x1 = 0.8107 | 27.72
318.15 K, x1 = 1 | 41.04
328.15 K, x1 = 0.0902 | 2.263
333.15 K, x1 = 0.8107 | 17.54
333.15 K, x1 = 1 | 24.25
338.15 K, x1 = 0.2934 | 4.026
338.15 K, x1 = 0.4996 | 7.4
343.15 K, x1 = 0.4996 | 6.47
343.15 K, x1 = 0.6034 | 8.56

CCCC[N+]1(C)CCCC1.O=S(=O)([O-])C(F)(F)F + CC#N
viscosity [mPa·s], 101 kPa
Settings | 288.15 K | 293.15 K | 298.15 K
x1 = 0.0008322 | 0.377 | 0.358 | 0.34
x1 = 0.001153 | 0.379 | 0.359 | 0.342
x1 = 0.001607 | 0.381 | 0.361 | 0.345
x1 = 0.002041 | 0.383 | 0.364 | 0.347
x1 = 0.002439 | 0.386 | 0.366 | 0.349
x1 = 0.002832 | 0.388 | 0.368 | 0.351
x1 = 0.003272 | 0.39 | 0.369 | 0.353
x1 = 0.003684 | 0.392 | 0.372 | 0.355
x1 = 0.004131 | 0.394 | 0.374 | 0.357
x1 = 0.00964 | 0.423 | 0.404 | 0.386
x1 = 0.01639 | 0.458 | 0.437 | 0.417
x2 = 0.9756 | 0.498 | 0.473 | 0.45

O=S(=O)([N-]S(=O)(=O)C(F)(F)F)C(F)(F)F.[Li+] + CC#N
100 kPa
Settings | electrical conductivity [S/m] | viscosity [mPa·s]
293 K, x1 = 0.25 | – | 17.9
303.15 K, x1 = 0.02067 | 2.79 | –
303.15 K, x1 = 0.03069 | 3.23 | –
308.15 K, x1 = 0.03069 | 3.34 | –
308.15 K, x1 = 0.04052 | 3.85 | –
308.15 K, x1 = 0.05013 | 4.25 | –
308.15 K, x1 = 0.07787 | 4.14 | –
313.15 K, x1 = 0.02067 | 3.03 | –
313.15 K, x1 = 0.07787 | 4.35 | –
318.15 K, x1 = 0.04052 | 4.16 | –
318.15 K, x1 = 0.05013 | 4.64 | –
323.15 K, x1 = 0.05957 | 4.97 | –
328.15 K, x1 = 0.05013 | 4.99 | –
328.15 K, x1 = 0.05957 | 5.14 | –
333.15 K, x1 = 0.05957 | 5.28 | –
